From publication PMC11672137, “High-Affinity Lectin Ligands Enable the Detection of Pathogenic Pseudomonas aeruginosa Biofilms: Implications for Diagnostics and Therapy” (JACS Au, 2024) come the findings set out here.

A word on the Kd: it is the equilibrium constant for the complex coming apart. Lower therefore signals tighter binding.

The structures appear in SMILES notation.

One assay deals with T1, LecA (Pseudomonas aeruginosa, UniProt Q05097).
T1 construct: made in house
Nature of the assay: Direct binding assay based on fluorescence polarization, titration with LecA.

Assay [1] has as its system P. aeruginosa PAO1 biofilm aggregates. As to the kind of experiment: In vitro biofilm staining under static conditions (CLSM). Format: cell-based, Pseudomonas aeruginosa. The conditions noted are these: 10 μM probe. On the procedure:
The ability of LecA- and LecB-targeting probes to image P. aeruginosa biofilms was evaluated in vitro. P. aeruginosa PAO1, constitutively expressing mCherry from plasmid pMP7605,[56] was cultivated in microtiter plates under shaking conditions to form biofilm aggregates, as reported previously.[43] Fluorescein-carbohydrate conjugates were added to the bacterial culture to reach a final concentration of 10 μM and biofilms were analyzed by confocal laser scanning microscopy (CLSM) under static conditions (Figures 2 and S4). […] To our surprise, the intended negative control xyloside 8 also stained the P. aeruginosa biofilms (Figures 2C and S4). In all cases, the green signal originating from the fluorescein conjugates was not homogeneously spread over the entire structure of the biofilm aggregates, but a certain heterogeneity was observed across biofilm regions as bright spots. Further, the intensity of staining varied between replicates (see the Supporting Information for individual experiments). […] Instead, only a very faint green shadow was detected for 9 indicating its suitability as a negative control. Thus, the observed biofilm staining with imaging probes 2, 3, 6, 7 and also xyloside 8 was carbohydrate dependent and while 2, 3 and 6, 7 are ligands of LecA and LecB, respectively, the molecular mechanism of xyloside 8 remains elusive.
One representative image of stained aggregates is shown. […] Scale bar = 50 μm.
P. aeruginosa PAO1 expressing the red fluorescent protein mCherry (pMP7605)23 was selected for this study. For this, P. aeruginosa PAO1 (DSM 19880, Braunschweig, Germany) was transformed with the mCherry plasmid (pMP7605).23 Bacteria were stored at -80 °C. For experimental use, bacteria were streaked on lysogeny broth (LB) agar (1% tryptone, 1% NaCl, 0,5% yeast extract, 1.3% agar) containing 60 µg/mL gentamicin (Gm) and incubated at 37 °C overnight. For liquid cultures, bacterial colonies were transferred from LB agar to 10 mL LB (1% tryptone, 1% NaCl, 0,5% yeast extract) containing 60 µg/mL Gm and incubated at 37 °C and 180 rpm overnight. For exponential growth, 10 mL of LB containing 60 µg/mL Gm were inoculated with P. aeruginosa PAO1 mCherry (pMP7605)23 using an overnight liquid culture […]
In vitro biofilm staining under static conditions
Biofilm staining experiments were performed in analogy to Wagner et al. with P. aeruginosa PAO1 pMP7605 (Figure S4).23,24 Bacterial overnight cultures were inoculated from single colonies in 5 mL LB supplemented with gentamicin (120 µg/mL) and grown at 37 °C and 180 rpm. The bacterial overnight cultures were then diluted to OD600 of 0.02 with LB and 500 µL of culture per well were transferred to 24-well plate (24CG, Art. No. 5231 or 24FC, Art. No. 3231). The biofilm was grown under shaking conditions (180 rpm) at 37 °C for 20–24 h. Biofilm aggregates were visualized using a confocal laser scanning microscope (Leica TCS Sp8 CLSM) using a 25× numerical-aperture water objective. Z-stacks (463 x 463 μm) were recorded every 2 μm for mCherry (ex.: 561 nm, red) and for fluorescein containing imaging compounds (ex.: 488 nm, green). […]
Maximum Intensity Projections (contrast range automatically adjusted by Imaris). Only one staining experiment was carried out for imaging probes 4 and S26, all other fluorescein conjugates were analyzed in at least three independent experiments.

Assay [2] has as its system P. aeruginosa PAO (DSM 1707) lung infection. As to the kind of experiment: Optical in vivo imaging and ex situ organ analysis in acute P. aeruginosa airway infection model. Also on record: species or system mice. Here is the method: Encouraged by the high affinity of the imaging probes and their ability to stain P. aeruginosa biofilms in vitro, we further investigated the compounds in vivo using an acute P. aeruginosa airway infection model in mice. Intratracheal administration of P. aeruginosa PAO (DSM 1707) results in a local infection that is mainly restricted to the lungs. With the infection dose of 2 × 10^6 cfu/50 μL chosen here, the number of bacteria peaks at 6 h after infection before the host immune system clears the bacteria.[70]
Then, imaging probes, divalent LecA-targeting probe 21, LecB-targeting probe 22 and the control sulfo-Cy7 (free acid), were administered intravenously to the tail vein 2 h post infection. […] This accumulation in the lungs was then confirmed by a subsequent ex vivo analysis of the organs.
Figure 6 Optical in vivo imaging in mice and ex situ analysis of organs with P. aeruginosa PAO acute lung infection. In vivo imaging of mice with P. aeruginosa intratracheal infection (right) or uninfected control mice (left) after intravenous administration of imaging probes 2 h post infection: (A) 50 nmol/20 g divalent LecA probe 21 or (B) 100 nmol/20 g LecB probe 22. Then, explanted lungs were analyzed for fluorescence intensity, shown as a false color scale in (C) divalent LecA probe 21 (left: uninfected, right: infected) and (D) LecB probe 22 (left: uninfected; middle: uninfected control without dye; right: infected). (E) Quantification of the average radiant efficiency of the divalent LecA ligand 21 and the control sulfo-Cy7 free acid in the lungs of uninfected and infected mice. Duplicate data points and the mean are depicted. (F) Average radiant efficiency was quantified for the LecB imaging probe 22 in lungs of infected and uninfected mice. In addition, (G) further mouse organs were explanted after i.v. injection of 21 (50 nmol/20 g) or control sulfo-Cy7 free acid (50 nmol/20 g) and imaged. Organs of uninfected (left), infected (right) mice, and uninfected mice without any dye (upper middle on the sulfo-Cy7 free acid rows) were compared. Fluorescence intensities are shown as false color pictures. […]
Lung infection model and in vivo imaging of P. aeruginosa
C57BL/6J and albino (Tyrc2J) C57BL/6 mice were bred and housed at the Central Animal Facility, Hannover Medical School, Germany. Animal experiments were performed with permission number: 33.9-42502-04-16/2072 from the Lower Saxony State Office for Consumer Protection and Food Safety (LAVES), Germany. Mice were anesthetized with 3% isoflurane (CP Pharma) and infected intratracheally with 2x10^6 cfu/50 µL of P. aeruginosa PAO (DSM1707, Braunschweig, Germany) as described previously.26
50 – 100 nmol sulfo-Cyanine7-compound (divalent LecA probe 21; LecB probe 22; control sulfoCy7 free acid, CAS no.: 2104632-30-4, Lumiprobe; control sulfoCy7 azide, 20, Lumiprobe) per 20 g mouse was injected intravenously 2 h after infection. Optical imaging was performed 4 – 7 h after compound administration. Mice were anesthetized with 3% isoflurane […]
an in vivo imaging system (IVIS SpectrumCT, PerkinElmer). Subsequently mice were euthanized and organs were imaged (675/760 nm) ex situ individually. To enhance Cyanine7 specific fluorescent signal spectral unmixing was performed on in vivo images using LivingImage 4.7 (PerkinElmer). […]

Assay [3] deals with P. aeruginosa PAO1 biofilms. Nature of the assay: In vitro biofilm staining under flow conditions, compound supplementation to the medium. Format: cell-based, Pseudomonas aeruginosa. The conditions noted are these: for Biofilm staining after accumulation: 500 nM in medium, 4 h, fluorescence microscope; for Biofilm staining by CLSM after accumulation: 500 nM, 4 h accumulation, without washing. Here is the method: P. aeruginosa biofilms were grown under flow conditions and observed by fluorescence microscopy in analogy to Ghanbari et al.[66] To this end, P. aeruginosa PAO1 expressing the red fluorescent protein mCherry[56] was diluted to an OD600 nm of 0.1 and injected into the microfluidics device. After a 30-min settling period, biofilms were grown under a constant laminar flow rate of 3 mL/h per channel. Following 48 h of incubation at 30 °C, dense and mature P. aeruginosa PAO1 biofilms were observed, which were then further used for analysis of the imaging probes.
To circumvent these technical drawbacks, the addition of compounds to the medium reservoir and retention at the biofilm was pursued. Imaging compounds were added to the medium reservoirs at a concentration of 500 nM, which were continuously pumped (3 mL/h) through the flow cell for 4 h. Compound accumulation at mature P. aeruginosa biofilms was immediately analyzed using fluorescence microscopy. Afterwards, the medium was exchanged, and the biofilms were washed for 30 min (3 mL/h, no compound) to monitor the retention (Figure 5). Furthermore, an analysis using CLSM was also performed after 4 h of accumulation without washing (Figures 5 and S22).
Figure 5 Staining of P. aeruginosa PAO1 biofilms grown under flow conditions with compound supplementation to the medium. Biofilm staining with (A) fluorescein divalent probe 17, (B) fluorescein control 24, (C) BODIPY divalent probe 19, and (D) BDP FL azide control 18 was monitored after 4 h of accumulation under constant flow (3 mL/h) of LB media containing 500 nM of respective compound. Retention of imaging compounds is shown after a subsequent wash period for 30 min with medium (3 mL/h, no compound). Images were recorded by using a fluorescence microscope. CLSM was performed for (E) BODIPY divalent probe 19 and the control (F) BDP FL azide 18 after 4 h of accumulation. Green signal originates from fluorescently labeled probes 17 and 19 and controls 24 and 18. P. aeruginosa constitutively expressing mCherry from pMP7605^56 is shown in red. Z-Stack size, 2 μm. Scale bar = 50 μm.
In vitro biofilm staining under flow conditions
The flow cell experiment was set up in analogy to Ghanbari et al. and in this study, optimized and established for biofilm staining.25 In principle, the experiment is based on an inlet connected to a medium source, a peristaltic pump providing constant medium flow, a flow chamber enabling analysis of bacterial growth and an outlet (waste container/bottle).
The medium used in the flow system was LB diluted by factor 5 containing 60 µg/mL
Gm. Silicone tubings 1.6 mm (ibidi, Germany) were used transporting medium from inlet to the peristaltic pump (Watson-Marlow Fluid Technology Solutions). Stopper hoses (CarlRoth) placed in peristaltic pump were coupled to silicone tubes via connectors (ibidi, Germany).
Stopper hoses are connected to bubble traps (obtained by Claus Sternberg, DTU Copenhagen) via 0.8 mm silicone tubing (ibidi, Germany). Bubble traps were used to remove air from the medium flow and to avoid biofilm disruption. Downstream from the bubble traps, the flow cell (μ-Slide VI 0.4 ibiTreat, ibidi, Germany) was placed into the system and connected to 1.6 mm silicone tubes (ibidi, Germany). The outlet is leading the medium from flow chamber to a waste […]
In order to inoculate the flow cell with P. aeruginosa PAO1 mCherry (pMP7605)23 the silicone tubes upstream and downstream of the flow chamber were pinched off by using commercial plastic clamps. The medium flow was stopped and the flow cell was inoculated by injecting 300 µL of the bacterial suspension (OD600nm of 0.1) into the silicone tubing upstream of the flow chamber. For this, a cannula (0.30 x 12 mm, Sterican) was used. The injection point was sealed with silicone glue. After bacterial settling time of 30 min, the flow was started again and clamps were removed. Growth temperature was regulated by using a heat system (ibidi, […]
Germany). […]

T1 sequence (Q05097 whole entry): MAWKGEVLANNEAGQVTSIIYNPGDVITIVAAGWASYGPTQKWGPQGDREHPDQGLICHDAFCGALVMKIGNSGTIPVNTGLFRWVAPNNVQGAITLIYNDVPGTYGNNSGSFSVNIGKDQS
Experimental for LecA: The binding affinities of imaging probes 2–4 for LecA were determined using a direct binding assay based on fluorescence polarization (FP).[47]
(A, C) Monovalent LecA imaging probes 2–4 based on phenyl β-D-galactoside (1) were titrated with LecA. […] (E) Xyloside-fluorescein conjugate (8) and azido fluorescein (9) served as negative controls in titrations with LecA and LecB, respectively. Averages and standard deviations were determined from at least three independent titrations of technical triplicates each.
Direct binding affinity determination of LecA and LecB imaging probes was performed with direct titration of protein and imaging probes in TBS/Ca2+ buffer. Protein dilution series was prepared in 96 well plates and 10 µL of each dilution in triplicates were mixed with 10 µL of fluorescent compound (20 nM) in 384-well microtiter plates (Greiner Bio-One, Germany, cat no 781900). The plates were centrifuged (1 min, 500 g), sealed and incubated for 2 h in dark wet chamber under gentle shaking. Fluorescence was measured on a PheraStar FS plate reader (BMG Labtech GmbH, Germany) with excitation filters at 485 nm and emission filters at 535 nm. The data were analysed with MARS Data Analysis Software (BMG Labtech GmbH, Germany) to calculate Kd values.

On LecA, `O=C1OC2(c3ccc(O)cc3Oc3cc(O)ccc32)c2ccc(NC(=S)NCCOCCOCCOCCn3cc(CNc4ccc(S[C@@H]5O[C@H](CO)[C@H](O)[C@H](O)[C@H]5O)cc4)nn3)cc21` [compound 3] displayed a Kd of 11.6 ± 0.7 µM. Moreover, the “Staining of biofilm aggregates” value in assay [1] is “showed staining”.

`O=C1OC2(c3ccc(O)cc3Oc3cc(O)ccc32)c2ccc(NC(=S)NCCOCCOCCOCCn3cc(COc4ccc(S[C@@H]5O[C@H](CO)[C@H](O)[C@H](O)[C@H]5O)cc4)nn3)cc21` [compound 4] yielded a Kd on LecA of 8.5 ± 0.8 µM.

Turning to `C[C@@H]1O[C@H](CNS(=O)(=O)c2ccc(-c3cn(CCCNC(=O)CCCCC[N+]4=C(/C=C/C5=CC(=C/C=C6/N(C)c7ccc(S(=O)(=O)O)cc7C6(C)C)/CCC5)C(C)(C)c5cc(S(=O)(=O)[O-])ccc54)nn3)s2)[C@@H](O)[C@H](O)[C@@H]1O` [compound 22], the “Average fluorescence radiant efficiency of explanted lungs” value in assay [2] (ex vivo analysis of organs, infected vs uninfected mice) is “elevated compared with uninfected mice”. Also, in assay [2] (i.v. 2 h post infection, infected vs uninfected mice, 21 50 nmol/20 g, 22 100 nmol/20 g), the “Cyanine7 signal in lung area, optical in vivo imaging” value is listed as “elevated Cyanine7 signals in the area of the lung of infected mice compared to uninfected mice”. The “Fluorescence ex vivo in lungs of uninfected animals compared to control sulfo-Cyanine7 (free acid)” value in assay [2] (uninfected mice, ex vivo quantification) is given as “a certain accumulation in the lungs of uninfected animals”.

On LecA, `O=C1OC2(c3ccc(O)cc3Oc3cc(O)ccc32)c2ccc(NC(=S)NCCOCCOCCOCCn3cc(CNc4cccc(S[C@@H]5O[C@H](CO)[C@H](O)[C@H](O)[C@H]5O)c4)nn3)cc21` [compound 2] had a Kd of 5.3 ± 0.7 µM. Also, the “Staining of biofilm aggregates” value in assay [1] is given as “showed staining”.

Consider `CC1=CC(C)=[N+]2C1=Cc1ccc(CCC(=O)NCCCn3cc(CCN(Cc4ccc(NC(=O)CCc5ccc(O[C@@H]6O[C@H](CO)[C@H](O)[C@H](O)[C@H]6O)cc5)cc4)Cc4ccc(NC(=O)CCc5ccc(O[C@@H]6O[C@H](CO)[C@H](O)[C@H](O)[C@H]6O)cc5)cc4)nn3)n1[B-]2(F)F` [compound 19], for which the “Biofilm staining after accumulation” value in assay [3] (3 mL/h) was “strong staining was observed”. Besides, in assay [3], the “Biofilm staining by CLSM after accumulation” value was “clear and strong staining predominantly at the periphery of large biofilm aggregates”. In addition, in assay [3] (after 4 h accumulation at 500 nM, 30 min wash, 3 mL/h, no compound), the “Retention at biofilm after wash” value is “the strong signal was still observed”.

As to `CC1=CC(C)=[N+]2C1=Cc1ccc(CCC(=O)NCCCN=[N+]=[N-])n1[B-]2(F)F` [compound 18, BDP FL azide, reference compound], the “Biofilm staining after accumulation” value in assay [3] (3 mL/h) was “did not show any enrichment”. The “Biofilm staining by CLSM after accumulation” value in assay [3] is “no signal was observed”.
